Experiment [1] addresses sodium channels in isolated cardiac cells (human atrial myocytes) (Homo sapiens, UniProt Q14524). The experiment is described as follows: Sodium current (INa) block in isolated human atrial myocytes, whole-cell patch clamp. Conditions: pacing rates 0.1, 1 and 3 Hz, FIG. 2. It counts as cell-based. On the procedure:
Phenyloin and compounds prepared in accordance with Example 1 were evaluated in vitro to determine their ability to block sodium channels in isolated cardiac cells (human atrial myocytes) using the whole-cell patch clamp method
Human myocytes were obtained from specimens of human right atrial appendages obtained during surgery from hearts of patients undergoing cardiopulmonary bypass surgery. The procedure produced rod-shaped, ion tolerant cells which were used within 24 hours after isolation. See Crumb et al. (1995) Am J Physiol 268:H1335-H1342. […]
After rupture of the cell membrane (entering whole-cell mode), current kinetics and amplitudes were allowed to stabilize as the cell was dialyzed with internal solution and paced at 3 Hz (3-5 minutes). Sodium current (INa) was measured using a voltage pulse to −20 mV (40 ms pulse duration) from a holding potential of −80 mV. Peak inward current was measured for INa. […]
Currents and voltages were recorded with patch-clamp amplifiers (Axopatch 1-B, Axon Instruments). […] Data was presented as % reduction of current amplitude, measured as current reduction after a steady-state effect had been reached in the presence of test article relative to current amplitude before introduction of test article (control). […]
A general note: In patch-clamp work, channel activity is measured electrically.

The target of experiment [2] is T1, cloned human hERG channel (Homo sapiens, UniProt Q12809).
T1 construct: expressed in transfected cells; host or cells: HEK cells
T1 sequence (Q12809 whole entry): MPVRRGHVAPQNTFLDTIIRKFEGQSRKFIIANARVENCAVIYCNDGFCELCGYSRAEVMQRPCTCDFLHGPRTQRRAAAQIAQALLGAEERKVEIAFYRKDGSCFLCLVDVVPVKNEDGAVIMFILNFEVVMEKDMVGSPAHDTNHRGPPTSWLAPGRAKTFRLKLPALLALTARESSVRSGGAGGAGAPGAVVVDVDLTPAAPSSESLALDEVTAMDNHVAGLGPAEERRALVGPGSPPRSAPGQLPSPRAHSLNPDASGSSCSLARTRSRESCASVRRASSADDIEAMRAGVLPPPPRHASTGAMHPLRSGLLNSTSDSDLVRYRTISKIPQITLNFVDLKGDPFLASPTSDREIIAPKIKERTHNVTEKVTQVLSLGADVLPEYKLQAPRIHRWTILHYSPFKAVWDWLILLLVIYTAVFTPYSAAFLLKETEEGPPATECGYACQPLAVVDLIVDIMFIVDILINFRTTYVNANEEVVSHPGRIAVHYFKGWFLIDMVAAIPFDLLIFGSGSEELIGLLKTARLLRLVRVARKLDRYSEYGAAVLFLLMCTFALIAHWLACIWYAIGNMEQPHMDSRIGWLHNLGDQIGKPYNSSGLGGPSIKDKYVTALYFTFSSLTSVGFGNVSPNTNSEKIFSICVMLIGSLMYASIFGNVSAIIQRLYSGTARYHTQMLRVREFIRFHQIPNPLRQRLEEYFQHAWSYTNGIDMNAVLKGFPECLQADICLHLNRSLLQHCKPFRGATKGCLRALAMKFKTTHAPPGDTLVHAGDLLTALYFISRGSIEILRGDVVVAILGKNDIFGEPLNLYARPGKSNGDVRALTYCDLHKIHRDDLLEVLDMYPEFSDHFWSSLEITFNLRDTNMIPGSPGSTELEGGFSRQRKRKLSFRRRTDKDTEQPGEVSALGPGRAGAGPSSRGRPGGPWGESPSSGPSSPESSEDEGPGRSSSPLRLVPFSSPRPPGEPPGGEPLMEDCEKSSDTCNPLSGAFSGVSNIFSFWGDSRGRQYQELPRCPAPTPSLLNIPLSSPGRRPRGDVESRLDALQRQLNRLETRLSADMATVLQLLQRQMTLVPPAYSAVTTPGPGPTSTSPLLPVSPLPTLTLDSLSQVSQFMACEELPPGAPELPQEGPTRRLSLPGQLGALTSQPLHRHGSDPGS
The experiment is described as follows: hERG current block in HEK cells, whole-cell patch clamp. Format: cell-based. Conditions: HEK cells expressing cloned human hERG channel, 37±1° C., peak current at −40 mV; read-out: hERG (μM), IC50 for inhibition of hERG. How it is done: Electrophysiological measurements of hERG current were made in vitro to assess the hERG block produced by the phenyloin conjugates. hERG currents were measured in HEK cells expressing the cloned human hERG channel using the whole-cell variant of the patch clamp method. Experiments were performed at 37±1° C. hERG current was elicited by a step pulse to +10 mV for 500 ms from a holding potential of −75 mV, followed by a pulse to −40 mV for 500 ms. Peak current was measured from the pulse to −40 mV. Six concentrations of each test compound were added to the cell in a cumulative manner starting with the lowest test concentration. Each cell served as its own control and data are presented as % reduction of current amplitude achieved in the presence of drug.

Chain of sodium channels in isolated cardiac cells (human atrial myocytes) (Q14524 whole entry): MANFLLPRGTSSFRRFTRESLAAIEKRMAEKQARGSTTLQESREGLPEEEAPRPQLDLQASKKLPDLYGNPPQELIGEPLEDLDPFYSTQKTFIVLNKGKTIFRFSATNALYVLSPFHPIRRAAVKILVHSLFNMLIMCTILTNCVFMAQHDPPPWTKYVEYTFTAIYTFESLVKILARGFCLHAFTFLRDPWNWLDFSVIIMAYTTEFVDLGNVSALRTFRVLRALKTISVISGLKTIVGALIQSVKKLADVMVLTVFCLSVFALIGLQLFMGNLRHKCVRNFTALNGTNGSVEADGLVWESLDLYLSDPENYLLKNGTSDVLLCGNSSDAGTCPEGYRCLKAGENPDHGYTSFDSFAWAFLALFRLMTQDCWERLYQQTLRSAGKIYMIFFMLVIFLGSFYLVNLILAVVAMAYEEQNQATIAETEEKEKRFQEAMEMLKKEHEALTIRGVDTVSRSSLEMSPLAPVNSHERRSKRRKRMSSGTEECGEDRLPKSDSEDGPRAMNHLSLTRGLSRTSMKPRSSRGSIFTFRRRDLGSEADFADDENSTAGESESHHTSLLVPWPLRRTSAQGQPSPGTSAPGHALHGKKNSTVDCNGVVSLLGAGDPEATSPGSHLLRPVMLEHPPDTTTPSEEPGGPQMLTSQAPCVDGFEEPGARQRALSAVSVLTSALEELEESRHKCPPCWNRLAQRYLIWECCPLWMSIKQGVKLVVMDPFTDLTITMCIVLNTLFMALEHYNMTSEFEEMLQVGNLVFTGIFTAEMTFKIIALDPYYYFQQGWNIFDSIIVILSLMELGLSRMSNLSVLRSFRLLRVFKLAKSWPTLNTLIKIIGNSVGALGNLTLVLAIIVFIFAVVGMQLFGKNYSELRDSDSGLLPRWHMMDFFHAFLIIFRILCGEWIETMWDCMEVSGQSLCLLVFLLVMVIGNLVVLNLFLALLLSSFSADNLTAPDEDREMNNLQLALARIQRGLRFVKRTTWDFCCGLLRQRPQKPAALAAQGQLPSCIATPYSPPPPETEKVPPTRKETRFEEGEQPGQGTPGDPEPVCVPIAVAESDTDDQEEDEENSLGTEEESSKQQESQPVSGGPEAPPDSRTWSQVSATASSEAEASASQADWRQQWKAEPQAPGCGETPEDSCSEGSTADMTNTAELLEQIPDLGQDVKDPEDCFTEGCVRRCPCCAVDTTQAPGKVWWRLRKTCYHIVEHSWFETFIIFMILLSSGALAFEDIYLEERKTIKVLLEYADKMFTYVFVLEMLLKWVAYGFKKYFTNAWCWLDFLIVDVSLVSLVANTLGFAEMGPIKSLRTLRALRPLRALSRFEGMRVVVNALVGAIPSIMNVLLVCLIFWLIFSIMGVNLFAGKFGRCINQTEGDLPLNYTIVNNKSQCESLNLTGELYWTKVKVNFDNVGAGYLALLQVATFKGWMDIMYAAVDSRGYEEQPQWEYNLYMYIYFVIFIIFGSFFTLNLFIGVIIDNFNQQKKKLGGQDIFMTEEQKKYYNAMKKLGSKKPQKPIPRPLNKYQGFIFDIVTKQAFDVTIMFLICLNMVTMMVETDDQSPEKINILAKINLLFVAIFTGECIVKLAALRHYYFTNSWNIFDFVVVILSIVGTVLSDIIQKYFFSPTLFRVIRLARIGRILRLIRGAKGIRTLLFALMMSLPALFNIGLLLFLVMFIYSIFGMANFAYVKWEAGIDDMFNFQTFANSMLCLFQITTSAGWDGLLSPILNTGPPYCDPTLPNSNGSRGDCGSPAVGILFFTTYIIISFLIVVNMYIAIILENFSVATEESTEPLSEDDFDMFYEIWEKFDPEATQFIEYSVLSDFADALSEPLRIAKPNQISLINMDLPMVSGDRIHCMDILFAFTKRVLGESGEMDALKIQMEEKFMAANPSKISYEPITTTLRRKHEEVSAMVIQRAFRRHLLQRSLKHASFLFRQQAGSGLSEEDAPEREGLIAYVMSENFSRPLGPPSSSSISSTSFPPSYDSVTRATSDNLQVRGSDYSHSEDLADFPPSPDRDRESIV

Turning to `O=C1NC(=O)C(c2ccccc2)(c2ccccc2)N1` [Phenytoin, 5,5-diphenylhydantoin], the “frequency-dependence of sodium channel block (in words)” value in experiment [1] is “frequency-dependent block of sodium channels”.

In general, IC50 refers to the concentration that inhibits the measured activity by half. Regarding `COCCOCCOCCOCCN1C(=O)NC(=O)C1(c1ccccc1)c1ccccc1` [mPEG4-N-Phenytoin], the IC50 in experiment [2] was determined as 88.9 µM.

In the case of `COCCOCCOCCOCCOCCN1C(=O)NC(=O)C1(c1ccccc1)c1ccccc1` [mPEG5-N-Phenytoin], in experiment [2], the IC50 is above 100 µM.

As for `COCCOCCOCCOCCOCCOCCOCCN1C(=O)NC(=O)C1(c1ccccc1)c1ccccc1` [mPEG7-N-Phenytoin], in experiment [2], the IC50 is above 100 µM.
